Legend:
Assay type in all cases: cell-based, human
[1] = system: c-raf mRNA; assay: c-raf mRNA levels by Northern blot in HMVEC
Procedure: (§1) Human dermal microvascular cells (HMVEC-d; Clonetics, San Diego, Calif.) were cultivated in endothelial basal media (EBM, Clonetics) supplemented with 10% fetal bovine serum (HyClone, Logan, Utah). Cells were grown in 100 mm petri dishes until 70-80% confluent, then washed with PBS and OPTI-MEM (Life Technologies, Inc., Gaithersburg, Md.). The cells were then incubated in the presence of OPTI-MEM and […] LIPOFECTIN (a 1:1 (w/w) liposome formulation of the cationic lipid N-[1-(2,3-dioleyloxy)propyl]-n,n,n-trimethylammonium chloride (DOTMA), and dioleoyl phosphotidylethanolamine (DOPE) in membrane filtered water (Life Technologies, Gaithersburg, Md.), per 100 nM of oligonucleotide followed by addition of oligonucleotide at the appropriate concentrations.
(§2) For determination of mRNA levels by Northern blot, total RNA was prepared from cells by the guanidinium isothiocyanate procedure or by the Qiagen RNAEASY method (Qiagen, Santa Clarita, Calif.) at the indicated times after initiation of oligonucleotide treatment. Northern blot analysis was performed as described in Current Protocols in Molecular Biology (Ausubel, F. M., et al., (eds), 1987, Greene Publishing Assoc. and Wiley Interscience, New York). A glyceraldehyde 3-phosphate dehydrogenase (G3PDH) probe was purchased from Clontech (Palo Alto, Calif., Catalog Number 9805-1). RNA was quantified and normalized to G3PDH mRNA levels using a Molecular Dynamic PHOSPHORIMAGER (Sunnyvale, Calif.).
ISIS 12854 (SEQ ID NO. 2) is a 2'-O-methoxyethyl mixed backbone chimeric antisense oligonucleotide designed to hybridize with 3'-untranslated sequences contained within human c-raf mRNA. To determine whether this antisense oligonucleotide is effective as a c-raf inhibitor in endothelial cells, human dermal microvascular cells (HMVEC) were treated with ISIS 12854 (SEQ ID NO. 2) as described in Example 2. C-raf mRNA and protein expression was examined by northern and Western blot analysis. The c-raf cDNA probe was generated from the plasmid, p627 (American Type Culture Collection, Manassas, Va.; catalog #41050), following the supplied instructions. The c-raf antibody was obtained from Transduction Laboratories, Inc. (Lexington, Ky.).

[2] = system: E-selectin; assay: TNF-α-induced E-selectin cell surface expression in HMVEC, flow cytometry
Procedure: as §1
(§3) The effect of c-raf and Ha-ras antisense oligonucleotide treatment on the induction of E-selectin by TNF-α was examined. HMVEC cells were treated with either the c-raf or Ha-ras antisense compound under dose-response conditions or over time at a single dose level followed by stimulation of E-selectin expression by TNF-α for 5 hours. The cell surface expression of E-selectin was determined by flow cytometry analysis. Following oligonucleotide treatment, cells were detached from the plates and analyzed for surface expression of cell adhesion molecules using a Becton Dickinson (San Jose, Calif.) FACScan. TNF-α and FITC conjugated antibody for E-selectin were obtained from R & D Systems (Minneapolis, Minn.). PE-conjugated antibody for ICAM-1 was obtained from Pharmingen (San Diego, Calif.). VCAM-1 antibody was obtained from Santa Cruz Biotechnology, Santa Cruz, Calif. Cell surface expression was calculated using the mean value of fluorescence intensity using 3,000-5,000 cells stained with the appropriate antibody for each sample and time point. Results are expressed as percentage of control (cell surface expression induced by TNF-α in cells that were not treated with oligonucleotides) based upon mean fluorescence intensity.
The effects of c-raf, Ha-ras, and a E-selectin antisense oligonucleotide on TNF-α-induced E-selectin cell surface expression under kinetic conditions were examined. […] To test this, cells were treated, separately, with antisense oligonucleotides to E-selectin, ICAM-1 and VCAM-1 and allowed to recover prior to TNF-α treatment. […] E-selectin cell surface expression was measured by flow cytometry analysis after 5 hours of TNF-A treatment.

[3] = system: ICAM-1; assay: TNF-α-induced ICAM-1 cell surface expression in HMVEC, flow cytometry
Procedure: as §1
as §3, with “intensity. Basal expression of E-selectin and VCAM-1 is undetectable in the absence of TNF-α whereas a low level of basal expression is detectable for ICAM-1.” for “intensity.”
(§4) TNF-α induction of ICAM-1 and VCAM-1 in cells treated with c-raf and Ha-ras antisense oligonucleotides was also examined to further define the roles of c-raf and Ha-ras in cytokine signaling. Oligonucleotides were tested, using flow cytometry analysis, as described in Example 4. Results are shown in Table 6 (ICAM-1) and Table 7 (VCAM-1).

[4] = system: VCAM-1; assay: TNF-α-induced VCAM-1 cell surface expression in HMVEC, flow cytometry
Procedure: as §1
as §3, with “intensity. Basal expression of E-selectin and VCAM-1 is undetectable in the absence of TNF-α whereas a low level of basal expression is detectable for ICAM-1.” for “intensity.”
as §4

[5] = system: E-selectin mRNA; assay: TNF-α-induced E-selectin mRNA, Northern blot; settings: 48 hrs recovery, TNF-α two to three hours before RNA analysis
Procedure: as §2
(§5) Northern blot analysis was carried out to examine whether c-raf and Ha-ras antisense oligonucleotides inhibit the induction of cell adhesion molecules at the transcriptional level. Cells were treated with c-raf (ISIS 12854, SEQ ID NO. 2) or Ha-ras (ISIS 15168, SEQ ID NO. 4) antisense oligonucleotides and allowed to recover for 48 hrs. TNF-α was added two to three hours prior to RNA analysis and Northern blotting was performed with probes specific for E-selectin, ICAM-1, and VCAM-1. The probe for E-selectin was obtained by PCR amplification using primers directed to HUMELAM1A (Genbank Accession No. M24736; SEQ ID NO. 18).

[6] = system: ICAM-1 mRNA; assay: TNF-α-induced ICAM-1 mRNA, Northern blot; settings: 48 hrs recovery, TNF-α two to three hours before RNA analysis
Procedure: as §2, §5

[7] = system: VCAM-1 mRNA; assay: TNF-α-induced VCAM-1 mRNA, Northern blot; settings: 48 hrs recovery, TNF-α two to three hours before RNA analysis
Procedure: as §2, §5

[8] = system: JNK1 mRNA; assay: JNK1 mRNA expression by Northern blot; settings: at the concentration tested, FIG. 4
Procedure: as §1
as §2, with “A glyceraldehyde 3-phosphate dehydrogenase (G3PDH) probe was purchased from Clontech (Palo Alto, Calif., Catalog Number 9805-1).” left out, “Calif.). […]” for “Calif.).”

[9] = system: JNK1; assay: TNF-α-mediated JNK1 kinase activity, isoform-specific JNK assay; settings: FIG. 5
Procedure: (§6) To examine the effect of the c-raf antisense oligonucleotide (ISIS 12854, SEQ ID NO. 2) on ERK, JNK, and p38 MAPK activities stimulated by TNF-α, in vitro kinase assays were performed on extracts derived from cells treated with ISIS 12854 (SEQ ID NO. 2). Cells were treated with oligonucleotides and induced with cytokines. At the indicated time, cells were lysed on ice and debris was removed by centrifugation. Protein concentration was measured by Bradford assay. Lysate containing equal amounts of protein were incubated with primary antibody-agarose conjugates (ERK and p38 assay; Santa Cruz Biotechnology, Santa Cruz, Calif.), or with JNK1-specific or JNK2-specific antibodies (JNK assay; Upstate Biotechnology, Lake Placid, N.Y.), overnight at 4° C.
(§7) For isoform-specific JNK assays, anti-rabbit IgG conjugated with agarose beads was added to cell extracts following JNK antibody treatment and wash steps and incubated for 2 hours at 4° C. After washing with lysis buffer and kinase buffer, the pelleted beads were incubated with 1 μg of substrate (Elk-1 for ERK, ATF-2 for p38, and c-Jun for JNK MAPK) and 100 […] of ATP for 20 minutes at 37° C. MAPK and JNK assay kits, ATF-2 fusion protein, and antibodies for ATF-2, Elk-1 phospho-ATF-2 were purchased from New England BioLabs (Boston, Mass.). Reactions were terminated by the addition of 3×SDS sample buffer followed by boiling. […]

[10] = system: JNK2 mRNA; assay: JNK2 mRNA expression by Northern blot; settings: at the concentration tested, FIG. 4
Procedure: as §1
as §2, with “A glyceraldehyde 3-phosphate dehydrogenase (G3PDH) probe was purchased from Clontech (Palo Alto, Calif., Catalog Number 9805-1).” left out, “Calif.). […]” for “Calif.).”

[11] = system: JNK2; assay: TNF-α-mediated JNK2 kinase activity, isoform-specific JNK assay; settings: FIG. 5
Procedure: as §6, §7

[12] = Table 9, JNK antisense series, 20 nM
[13] = Table 9, JNK antisense series, 50 nM
[14] = Table 9, JNK antisense series, 100 nM
[15] = time course, 12 h/20 h after oligonucleotide treatment, TNF-α 5 hours
[16] = time course, 48 h after oligonucleotide treatment, TNF-α 5 hours
[17] = time course, 72 h after oligonucleotide treatment, TNF-α 5 hours

## AoToGoCoAoTsTsCsTsGsCsCsCsCsCoAoAoGoGoA [ISIS 15727, reference compound]
[1]
  effect on c-raf mRNA: did not exhibit any effect
[1]; 100 nM
  % mRNA Expression (c-raf): 96%
  % mRNA Inhibition (c-raf): 4%
[1]; 200 nM
  % mRNA Expression (c-raf): 135%
[2]; 25 nM, TNF-α for 5 hours, % of control
  % Cell Surface Expression (E-selectin): 119%
[2]; 75 nM, TNF-α for 5 hours
  % Cell Surface Inhibition (E-selectin): 6%
[2]; 75 nM, TNF-α for 5 hours, % of control
  % Cell Surface Expression (E-selectin): 94%
[2]; 150 nM, TNF-α for 5 hours, % of control
  % Cell Surface Expression (E-selectin): 106%
[2]; [12]
  % Cell Surface Expression (E-selectin): 137%
[2]; [13]
  % Cell Surface Expression (E-selectin): 128%
[2]; [14]
  % Cell Surface Expression (E-selectin): 124%
[2]; dose response, HMVEC
  effect on E-selectin induction: little to no effect
[2]; [15]
  % Cell Surface Expression (E-selectin): 93%
  % Cell Surface Inhibition (E-selectin): 7%
[2]; [16]
  % Cell Surface Expression (E-selectin): 106%
[2]; [17]
  % Cell Surface Expression (E-selectin): 81%
  % Cell Surface Inhibition (E-selectin): 19%
[3]; 20 nM
  % Cell Surface Expression (ICAM-1): 97%
  % Cell Surface Inhibition (ICAM-1): 3%
[3]; 50 nM
  % Cell Surface Expression (ICAM-1): 89%
  % Cell Surface Inhibition (ICAM-1): 11%
[3]; 100 nM
  % Cell Surface Expression (ICAM-1): 87%
  % Cell Surface Inhibition (ICAM-1): 13%
[4]; 20 nM
  % Cell Surface Expression (VCAM-1): 69%
  % Cell Surface Inhibition (VCAM-1): 31%
[4]; 50 nM
  % Cell Surface Expression (VCAM-1): 81%
  % Cell Surface Inhibition (VCAM-1): 19%
[4]; 100 nM
  % Cell Surface Expression (VCAM-1): 74%
  % Cell Surface Inhibition (VCAM-1): 26%
[5]
  % mRNA Expression (E-selectin): 103%
[6]
  % mRNA Expression (ICAM-1): 107%
[7]
  % mRNA Expression (VCAM-1): 113%

## CoToCoToCoTsGsTsAsGsGsCsCsCsGsCoToToGoG [ISIS 15347]
[2]; [12]
  % Cell Surface Expression (E-selectin): 89%
  % Cell Surface Inhibition (E-selectin): 11%
[2]; [13]
  % Cell Surface Expression (E-selectin): 84%
  % Cell Surface Inhibition (E-selectin): 16%
[2]; [14]
  % Cell Surface Expression (E-selectin): 82%
  % Cell Surface Inhibition (E-selectin): 18%
[8]
  JNK1 mRNA expression: nearly complete inhibition
[9]
  TNF-α-mediated induction of JNK1 activity: effectively reduced

## GoToCoCoGoGsGsCsCsAsGsGsCsCsAsAoAoGoToC [ISIS 15354]
[2]; [12]
  % Cell Surface Expression (E-selectin): 32%
  % Cell Surface Inhibition (E-selectin): 68%
[2]; [13]
  % Cell Surface Expression (E-selectin): 29%
  % Cell Surface Inhibition (E-selectin): 71%
[2]; [14]
  % Cell Surface Expression (E-selectin): 33%
  % Cell Surface Inhibition (E-selectin): 67%
[8]
  JNK1 mRNA expression: without affecting
[10]
  JNK2 mRNA expression: nearly complete inhibition
[11]
  TNF-α-mediated induction of JNK2 activity: effectively reduced

## GsAsAsGsTsCsAsGsCsCsAsAsGsAsAsCsAsGsCsT (GAAGTCAGCCAAGAACAGCT; all phosphorothioate, sugars by position and methylation of C not given here) [ISIS 11928, fully phosphorothioated oligonucleotide with all 2'-methoxyethoxy nucleotides except a 3' terminal 2'-deoxy nucleotide, antisense to E-selectin]
[2]; concentrations as low as 20 nM, 12 hours following treatment
  block of E-selectin cell surface expression: 80%
[2]; [15]
  % Cell Surface Expression (E-selectin): 22%
  % Cell Surface Inhibition (E-selectin): 78%
[2]; [16]
  % Cell Surface Expression (E-selectin): 29%
  % Cell Surface Inhibition (E-selectin): 71%
[2]; [17]
  % Cell Surface Expression (E-selectin): 32%
  % Cell Surface Inhibition (E-selectin): 68%
